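Growth conditions: 96-well plates. Treatment: test compound, 48 hours, 5 concentrations. Analysis: linear interpolation between bracketing concentrations; unreached endpoints set to highest concentration. The concentration for full growth arrest is given as TGI.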
Legend:
Experiment in all cases: NCI tumour cell line growth inhibition, 48 h
HOP-18 NSCLC = test system: HOP-18 NSCLC
M19-MEL melanoma = test system: M19-MEL melanoma
SNB-78 CNS = test system: SNB-78 CNS
LXFL 529 NSCLC = test system: LXFL 529 NSCLC
RXF-631 renal = test system: RXF-631 renal
KM20L2 colon = test system: KM20L2 colon
DMS 273 small cell lung = test system: DMS 273 small cell lung
DLD-1 colon = test system: DLD-1 colon
XF 498 CNS = test system: XF 498 CNS
DMS 114 small cell lung = test system: DMS 114 small cell lung
P388 leukemia = test system: P388 leukemia
P388/ADR leukemia = test system: P388/ADR leukemia
SN12K1 renal = test system: SN12K1 renal

SMILES	TGI (HOP-18 NSCLC) [µM]	TGI (M19-MEL melanoma) [µM]	TGI (SNB-78 CNS) [µM]	TGI (LXFL 529 NSCLC) [µM]	TGI (RXF-631 renal) [µM]	TGI (KM20L2 colon) [µM]	TGI (DMS 273 small cell lung) [µM]	TGI (DLD-1 colon) [µM]	TGI (XF 498 CNS) [µM]	TGI (DMS 114 small cell lung) [µM]	TGI (P388 leukemia) [µM]	TGI (P388/ADR leukemia) [µM]	TGI (SN12K1 renal) [µM]
Cc1nc2ccccc2nc1NS(=O)(=O)c1ccc(N)cc1	> 100	> 100	> 100	> 100	> 100	> 100	> 100	> 100	> 100	–	–	–	–
O=S(=O)(CC1=NC2C=CC=CC2N=C1)NCc1ccccc1 (stereo not drawn)	> 100	> 100	–	> 100	–	> 100	> 100	> 100	> 100	–	–	–	–
CC(=O)Nc1ccc(-c2nnc(SCC(=O)Nc3ccccc3Cl)o2)cc1	> 100	> 100	> 100	> 100	–	> 100	> 100	> 100	–	> 100	–	–	–
CCCCOC(=O)/C(CC(=O)C=C(C)C)=N\NS(=O)(=O)c1ccc(C)cc1	> 100	> 100	> 100	> 100	–	> 100	–	> 100	> 100	> 100	–	–	–
Cc1ccc(S(=O)(=O)N/N=C2\C(=O)C3CC2C(Cl)C3Cl)cc1 (stereo not drawn)	> 100	–	–	> 100	> 100	> 100	> 100	> 100	–	> 100	–	–	–
C1=CCN(c2ccccc2)CC1	> 100	–	> 100	43.3	> 100	> 100	> 100	> 100	40.6	> 100	–	–	–
Nc1ccc(N=Nc2ccc(/C=C/c3ccc(N=Nc4ccc(N)c5ccc(S(=O)(=O)O)cc45)cc3S(=O)(=O)O)c(S(=O)(=O)O)c2)c2cc(S(=O)(=O)O)ccc12	> 100	> 100	> 100	–	–	> 100	> 100	> 100	> 100	> 100	> 100	> 100	> 100
O=C1/C(=C/c2cccc([N+](=O)[O-])c2)COc2ccccc21	24.8	5.49	> 100	7.79	31.7	> 100	–	9.56	–	8.14	–	–	–
CCN(CC)CCCCC1CCN(CC(=O)N2c3ccccc3NC(=O)c3ccccc32)CC1	–	> 100	> 100	> 100	> 100	–	> 100	> 100	> 100	> 100	–	–	–
CCc1cc(Cc2cc(CC)c(NC(=O)C3=CC(=O)CC(c4ccc(OC)cc4)O3)c(CC)c2Cl)c(Cl)c(CC)c1NC(=O)C1=CC(=O)CC(c2ccc(OC)cc2)O1 (stereo not drawn)	53.5	40.2	85.1	31.9	> 100	63.4	37.6	34.8	–	33.5	–	–	–
COc1ccc2c(c1)c(Cc1c(C)n(C)c3ccc(OC)cc13)c(C)n2C	> 100	> 100	> 100	> 100	–	> 100	> 100	> 100	> 100	> 100	–	–	–
O=C(O)Cc1cc(=O)oc2cc(O)c(Cl)cc12	> 100	> 100	–	> 100	–	> 100	> 100	> 100	> 100	> 100	–	–	–
CC[C@@]1(O)C(=O)OCc2c1c(Cl)c1n(c2=O)Cc2cc3ccccc3nc2-1	> 28.5	> 30.7	84	> 100	18.5	> 100	8.12	> 100	15.8	15.9	–	–	–
CCCCCCCCCCCCCCCC(=O)NC1CCc2cc(O)c(O)c(O)c2-c2ccc(SC)c(=O)cc21 (stereo not drawn)	–	–	28.2	8.04	28.1	32.7	16.4	22.4	29.6	6.37	–	–	–
c1ccc(C2=NN(c3ccccc3)C3(S2)SC(c2ccccc2)(c2ccccc2)c2ccccc23)cc1 (stereo not drawn)	–	> 100	> 100	> 100	–	> 100	> 100	> 100	> 100	> 100	–	–	–
COc1ccc(CCN2CCC(C#N)(c3ccc(OC)c(OC)c3)CC2)cc1OC	> 100	> 100	–	> 100	–	> 100	> 100	> 100	> 100	> 100	–	–	–
COc1ccc2c(OC)c3ccoc3nc2c1O	> 100	> 100	> 100	> 100	–	> 100	–	> 100	> 100	> 100	–	–	–
CC(=O)OC1[C@H]2c3cc4c(cc3CN3CCC(C[C@@H]1OC(C)=O)C23)OCO4 (stereo partly drawn)	–	> 75	> 75	> 75	–	> 75	> 75	> 75	–	> 75	–	–	–
COC(=O)c1c/c(=N\NC(=O)CC(=O)Nc2ccccc2Cl)c2ccccc2o1	–	–	> 100	> 100	> 100	> 100	> 100	> 100	> 100	> 100	–	–	–

— PubChem BioAssay (NCI)
